Results reported in patent US8299074B2, “P38 MAP kinase inhibitors” (RespiVert Ltd., priority 2008, dated 2012).
Where two headings read alike, the source gives them in different places.

How the values were obtained:
mice = assay: LPS-induced neutrophils accumulation in mice; assay type: in vivo
A/J mice = assay: Cigarette smoke model; assay type: in vivo; details: 50 μg/mL (35 μl, bid) intra-nasally, cigarette smoke exposed mice
Protocol: Cigarette Smoke Model A/J mice (males, 5 weeks old) were exposed to cigarette smoke (4% cigarette smoke, diluted with compressed air) for 30 min/day for 11 days using a Tobacco Smoke Inhalation Experiment System for small animals (Model SIS-CS; Sibata Scientific Technology, Tokyo, Japan). Test substances were given intra-nasally (35 μL of solution in 50% DMSO/PBS) and therapeutically twice daily for 3 days after the final cigarette smoke exposure. Twelve hours after the last dosing, animals were anesthetized, the trachea cannulated and bronchoalveolar lavage fluid (BALF) was collected.

[1] = test system: Dunkin-Hartley guinea-pigs; assay: Ovalbumin challenge/parainfluenza infection model; assay type: in vivo; details: nebulised 1.5 mg per day; sensitized animals treated with PIV3 medium; initial studies
p38 MAPKs or JNKs = details: Kuma, Y. (2005); cited from earlier work
p38 MAPK alpha (MAPK14) = molecular target: T1, p38 MAPK alpha (MAPK14) (Homo sapiens, UniProt Q16539); assay: Enzyme inhibition assay, p38 MAPK alpha (FRET, Z-LYTE, via MAPKAP-K2); assay type: biochemical; details: read-out: Enzyme p38α IC50
T1 construct: purchased Invitrogen

THP-1 cells = assay: LPS-induced TNF alpha release in THP-1 cells; assay type: cell-based; details: Homo sapiens, THP-1, read-out: THP-1 (LPS) TNFα IC50
Protocol: LPS-Induced TNF Alpha Release in THP-1 Cells: Potency […] Coli; O111:B4, Sigma) for 4 hr and the supernatant collected for determination of TNFα concentration by sandwich ELISA (Duo-set, R&D systems). The inhibition of TNFα production was calculated at each concentration by comparison with vehicle control.

U937 cells [2] = assay: LPS-induced TNF alpha release in U937 cells; assay type: cell-based; details: Homo sapiens; read-out: DU937 (LPS) TNFα REC50
How it was run: (§1)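 U937 cells differentiated with PMA (100 ng/ml) for 48 to 72 hours, pre-treated with compound for 2 hrs, then stimulated with E. coli O111:B4 LPS for 4 hrs. Supernatant TNFα and IL-8 measured by sandwich ELISA; inhibition at each concentration versus vehicle control.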

U937 cells [3] = assay: LPS-induced IL-8 release in U937 cells; assay type: cell-based; details: Homo sapiens, read-out: DU937 (LPS) IL-8 IC50
How it was run: as §1

BEAS2B cells = assay: Poly I:C-induced ICAM-1 induction in BEAS2B cells; assay type: cell-based; details: Homo sapiens, BEAS-2B, read-out: BEAS2B (polyIC) ICAM1 IC50
How it was run: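 Poly I:C (1 ug/ml) transfected into BEAS2B cells after 2 h compound pre-incubation. Surface ICAM-1 measured by cell-based ELISA 18 h post-transfection (HRP, OD450–655), corrected for cell number by OD595.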

[4] = test system: Differentiated U937 cells; assay: MTT assay (cell viability); assay type: cell-based, human
How it was run: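 Differentiated U937 cells pre-incubated with compound 4 h in 5% FCS or 24 h in 10% FCS; MTT read at 550 nm after DMSO solubilisation. Percentage loss of viability relative to 0.5% DMSO vehicle; apparent increases appear as negative percentages.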

[5] = Table 3, first MTT column, loss of cell viability at 1 μg/ml
[6] = Table 3, second MTT column, loss of cell viability at 1 μg/ml
[7] = Table 2, loss of cell viability at 1 μg/ml
[8] = Table 2, loss of cell viability, test conducted at 10 μg/ml

T1 sequence (Q16539 whole entry): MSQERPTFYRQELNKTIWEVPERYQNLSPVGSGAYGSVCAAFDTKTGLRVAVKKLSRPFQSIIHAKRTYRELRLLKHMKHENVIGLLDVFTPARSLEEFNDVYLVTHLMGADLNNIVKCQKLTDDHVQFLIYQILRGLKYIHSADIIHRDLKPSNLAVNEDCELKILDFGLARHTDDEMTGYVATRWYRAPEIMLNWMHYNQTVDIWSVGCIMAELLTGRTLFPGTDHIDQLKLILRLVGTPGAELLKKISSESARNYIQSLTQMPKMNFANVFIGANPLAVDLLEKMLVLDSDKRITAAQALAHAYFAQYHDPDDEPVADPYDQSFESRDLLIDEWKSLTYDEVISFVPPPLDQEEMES

| SMILES | IC50 (p38 MAPK alpha (MAPK14); Table 3) | IC50 (THP-1 cells; Table 3) | EC50 (U937 cells [2]) | IC50 (U937 cells [3]; Table 3) | IC50 (BEAS2B cells; Table 3) | DU937 (cell viability) MTT assay 4 h [4, 5] | DU937 (cell viability) MTT assay 4 h [4, 6] | also measured |
| --- | --- | --- | --- | --- | --- | --- | --- | --- |
| CCC(=O)O[C@]1(C(=O)SCF)[C@H](C)C[C@H]2[C@@H]3C[C@H](F)C4=CC(=O)C=C[C@]4(C)[C@@]3(F)[C@@H](O)C[C@@]21C [fluticasone propionate] |  |  |  |  |  |  |  | inhibition of LPS-induced neutrophil accumulation (mice; 50 μg/mL (35 μl, bid)): > 80%; macrophage accumulation into airways (A/J mice): did not inhibit; neutrophil accumulation into airways (A/J mice): did not inhibit; ovalbumin-mediated lung function changes [1]: inhibited ovalbumin-mediated lung function changes |
| Cc1ccc(-n2nc(C(C)(C)C)cc2NC(=O)Nc2ccc(OCCN3CCOCC3)c3ccccc23)cc1 [BIRB 796] |  |  |  |  |  |  |  | phosphorylation of p38 MAPKs or JNKs by the upstream kinase MKK6 or MKK4 (p38 MAPKs or JNKs): impaired the phosphorylation of p38 MAPKs or JNKs |
| Cc1ccc(-n2nc(C(C)(C)C)cc2NC(=O)Nc2ccc(Oc3ccnc(NC(=O)NCC(=O)N4CCCC4)c3)c3ccccc23)cc1 [Example 53, N-(2-(3-(4-(4-(3-(3-tert-Butyl-1-p-tolyl-1H-pyrazol-5-yl)ureido)naphthalen-1-yloxy)pyridin-2-yl)ureido)acetyl)pyrrolidine] | < 10 nM | < 10 nM | < 10 nM | < 5000 nM | < 10 nM | − (<=30%) | − (<=30%) |  |
| CC(=O)N1CCC(NC(=O)Nc2cc(Oc3ccc(NC(=O)Nc4cc(C(C)(C)C)nn4-c4ccc(C)cc4)c4ccccc34)ccn2)CC1 [Example 39, N-Acetyl 4-(3-(4-(4-(3-(3-tert-butyl-1-p-tolyl-1H-pyrazol-5-yl)ureido)naphthalen-1-yloxy)pyridin-2-yl)ureido)piperidine] | < 10 nM | < 10 nM | < 10 nM | < 10 nM | < 5000 nM | − (<=30%) | + (>30%) |  |
| CNC(=O)Nc1cc(Oc2ccc(NC(=O)Nc3cc(C(C)(C)C)nn3-c3ccc(C)cc3)c3ccccc23)ccn1 [Example 36] | < 5000 nM | < 10 nM | < 10 nM | < 5000 nM | < 10 nM | − (<=30%) | − (<=30%) |  |
| COCC(=O)NCC(=O)Nc1cc(Oc2ccc(NC(=O)Nc3cc(C(C)(C)C)nn3-c3ccc(C)cc3)c3ccccc23)ccn1 [Example 15, N-(4-(4-(3-(3-tert-Butyl-1-p-tolyl-1H-pyrazol-5-yl)ureido)naphthalen-1-yloxy)pyridin-2-yl)-2-(2-methoxyacetamido)acetamide] |  |  | < 10 nM |  |  |  |  | IC50 (p38 MAPK alpha (MAPK14); Table 2): < 10 nM; IC50 (THP-1 cells; Table 2): < 10 nM; IC50 (U937 cells [3]; Table 2): < 10 nM; IC50 (BEAS2B cells; Table 2): < 10 nM; DU937 (cell viability) MTT assay 4 h [4, 7]: − (<=30%); DU937 (cell viability) MTT assay 24 h [4, 7]: + (>30%) |
| Cc1ccc(-n2nc(C(C)(C)C)cc2NC(=O)Nc2ccc(Oc3ccnc(NC(=O)N(C)CCN4CCOCC4)c3)c3ccccc23)cc1 [Example 46, N-Methyl-N-(2-(morpholin-4-yl)ethyl)-N′-4-(4-(3-(3-tert-butyl-1-p-tolyl-1H-pyrazol-5-yl)ureido)naphthalen-1-yloxy)pyridin-2-ylurea] | < 10 nM | < 5000 nM | < 10 nM | < 10 nM | < 5000 nM | − (<=30%) | − (<=30%) |  |
| Cc1ccc(-n2nc(C(C)(C)C)cc2NC(=O)Nc2ccc(Oc3ccnc(NC(=O)CO)c3)c3ccccc23)cc1 [Example 5, N-(4-(4-(3-(3-tert-Butyl-1-p-tolyl-1H-pyrazol-5-yl)ureido)naphthalen-1-yloxy)pyridin-2-yl)-2-hydroxyacetamide] |  |  | < 10 nM |  |  |  |  | IC50 (p38 MAPK alpha (MAPK14); Table 2): < 5000 nM; IC50 (THP-1 cells; Table 2): < 10 nM; IC50 (U937 cells [3]; Table 2): < 10 nM; IC50 (BEAS2B cells; Table 2): < 10 nM; DU937 (cell viability) MTT assay 4 h [4, 8]: +^$ (>30%); DU937 (cell viability) MTT assay 24 h [4, 8]: +^$ (>30%) |
| Cc1ccc(-n2nc(C(C)(C)C)cc2NC(=O)Nc2ccc(Oc3ccnc(NC(=O)NCC(=O)NCCN4CCOCC4)c3)c3ccccc23)cc1 [Example 57, 2-(3-(4-(4-(3-(3-tert-Butyl-1-p-tolyl-1H-pyrazol-5-yl)ureido)naphthalen-1-yloxy)pyridin-2-yl)ureido)-N-(2-morpholinoethyl)acetamide] | < 10 nM | < 10 nM | < 5000 nM | < 5000 nM | < 5000 nM | − (<=30%) | − (<=30%) |  |
| Cc1ccc(-n2nc(C(C)(C)C)cc2NC(=O)Nc2ccc(Oc3ccnc(NC(=O)N4CCOCC4)c3)c3ccccc23)cc1 [Example 42, N-(4-(4-(3-(3-tert-Butyl-1-p-tolyl-1H-pyrazol-5-yl)ureido)naphthalen-1-yloxy)pyridin-2-yl)morpholine-4-carboxamide] | < 5000 nM | < 10 nM | < 10 nM | < 5000 nM | < 10 nM | − (<=30%) | − (<=30%) | Neutrophil numbers in BAL (mice; 0.2 mg/ml intra tracheal, 8 hr pre-dose, BALF 8 h after LPS, mean ± SEM, n = 8): 8.60 ± 1.59 ×10^5/mL |
